Patent US20060205640A1, “Papillosin antimicrobial peptide, a gene coding said peptide, a vector, a transformed organism and a compound containing said organism” (priority 2003, published 2006)
No end group written: not given here.

Assays:
E. coli = assay type: cell-based; details: gram-negative bacteria, 18 hours incubation, Mueller Hinton
Experimental: (§1) Complementary tests were carried out in order to determine the spectrum of activity of papillosin. The minimal bactericidal concentration (MBC) for each bacterial strain tested is determined as follows: The peptide is placed in a solution containing 0.01% acetic acid and 0.2% bovine serum albumin (BSA), then, serial dilutions of 2 in [sic—and?] 2 are realized in the same 0.01% solution of acetic acid and 0.2% BSA. 10 μl of each dilution are incubated in sterile 96-well plates (Becton Dickinson, USA, ref: 18572) in the presence of 100 μl of a bacterial suspension brought to an optical density of 0.001 at 600 nm in the Mueller Hinton environment (MHB, SIGMA, ref: M-9677).
(§2) The bacterial growth is monitored after 18 hours of incubation under agitation. The MBC is determined by spreading out the content of the first three wells in which no bacterial growth was observed; this spreading out was carried out on Petri dishes on which an agar was poured prepared from the Mueller Hinton environment. These dishes were then incubated 18 hours. The MBC corresponds to the lowest concentration of peptide for which no bacterial colony was observed on the incubated dishes.

S. aureus = assay type: cell-based; details: gram-positive bacteria, 18 hours incubation, Mueller Hinton
Experimental: as §1, §2

Sequence: GFWKKVGSAAWGGVKAAAKGAAVGGLNALAKHIQ [papillosin]
- MBC (E. coli): 0.25 to 0.5 µM
- MBC (S. aureus): 0.5 to 1 µM
